Laboratory results published in patent US11844772B2, “Method for treating rhabdoid tumors” (Lantern Pharma Inc., priority 2020, dated 2023).

Experiments:
[1] = system: CHLA-06 (group 2A/B) ATRT cell line; experiment: LP-184 sensitivity in ATRT cell line CHLA-06; assay type: cell-based
Source text: (§1) Patients receive several types of treatment, which may include surgery, chemotherapy and radiation, but the overall 2-year survival rate remains less than 15% for children aged younger than 3 years at diagnosis. ATRTs commonly have mutations in or loss of the gene SMARCB1. Increased LP-184 sensitivity correlates with decreased expression of SMARCB1. The panel of 3 ATRT cell lines, 2 of the 3 lines show evidence of high sensitivity to HydroxyUreaMethyl Acylfulvene (having a negative optical activity) or LP-184 with IC50s for those 2 being lower than 200 nM.

[2] = system: panel of 3 ATRT cell lines; experiment: LP-184 sensitivity in a panel of 3 ATRT cell lines; assay type: cell-based; conditions: 2 of the 3 ATRT cell lines (high sensitivity)
Source text: as §1

[3] = system: CHLA-05 (group 1) ATRT cell line; experiment: LP-184 sensitivity in ATRT cell line CHLA-05; assay type: cell-based
Source text: as §1

CHLA06 xenograft tumors = experiment: in vivo xenograft tumor study, animal model of atypical teratoid rhabdoid tumor (ATRT); parameters: species or system NOD SCID mice
Procedure: LP-184 or HydroxyUreaMethyl Acylfulvene with a negative optical activity was tested for anti-tumor efficacy in an in vivo xenograft tumor study by Lantern Pharma. […] LP-184 was administered after (treatment model) the onset of disease. CHLA06 cells were implanted subcutaneously in non-obese diabetic severe combined immunodeficiency (NOD SCID) mice, formed xenograft tumors, and were thereafter treated either with vehicle control of 95% saline/5% ethanol (N=10) or 2 mg/kg or 4 mg/kg LP-184 (N=10) administered as intravenous injections.
LP-184 was delivered as 5 every other day doses over 2 cycles with a break of 5 days between cycles (IV/QaD×5on/5off×2), i.e., dosing occurred on days 0, 2, 4, 6. 8, 14, 16, 18, 20, and 22 of the study. LP-184 treatment was started 4 weeks after implantation when the tumors reached a group average volume of 150 mm^3. […] 2 out of 10 mice in the 4 mg/kg LP-184 treatment group were virtually tumor-free at study termination (tumor volume 0.5 mm^3). […] The results are highlighted in FIG. 2, wherein the Y axis denotes tumor volume in mm^3 and X axis denotes days post, treatment initiation. Since tumor growth was established before administration of the anti-cancer study drug, the defining feature of the treatment tumor model, anti-tumor treatment effects may thus be appropriately attributed to LP-184.
In CHLA06 xenograft models, tumors from the vehicle control treated mice appear vividly large (length range 1.5-2 cm) whereas tumors from 4 mg/kg LP-184 treated animals shrunk remarkably (length less than 0.5 cm) or have fully regressed.

[4] = system: CHLA-02 (group 1) ATRT cell line; experiment: LP-184 sensitivity in ATRT cell line CHLA-02; assay type: cell-based
Source text: as §1

Work on CC1=C(CN(O)C(N)=O)C2=C(C)C3(CC3)[C@@](C)(O)C(=O)C2=C1 [LP-184, HydroxyUreaMethyl Acylfulvene] yielded an IC50 [1] of 37.4 nM, an IC50 [2] of less than 200 nM and an IC50 [3] of 162 nM. For the same compound, the “mice virtually tumor-free at study termination” value (CHLA06 xenograft tumors; 4 mg/kg IV group, N=10) was 2 out of 10, the “tumor volume of virtually tumor-free mice” value (CHLA06 xenograft tumors; 4 mg/kg IV group, study termination) was 0.5 mm^3 and the “tumor length (photographs at end of experiment)” value (CHLA06 xenograft tumors; 4 mg/kg LP-184 treated animals, vehicle 1.5-2 cm) was “less than 0.5 cm”. The “tumor regression, on average” value (CHLA06 xenograft tumors; LP-184 treated groups (2 or 4 mg/kg IV), end of study day 42) was “near complete tumor regression”, the “tumor regrowth after final dose” value (CHLA06 xenograft tumors; day 40, final dose on day 22) was “no tumor regrowth” and the Tumor growth inhibition (CHLA06 xenograft tumors; relative to control, IV QoDx5 on/5 off x2, 2 mg/kg or 4 mg/kg) was 112%. For the same compound, the IC50 [4] was 1770 nM.
